Experiments:
[1] = test system: αvβ3; settings: cited from earlier work
[2] = test system: αvβ5; settings: cited from earlier work
[3] = test system: SW480 ITGB6 high cells; test: Long-term cytotoxicity, SW480 ITGB6 high; type: cell-based, human; settings: SW480 versus SW480 ITGB6 high, Figure S7

| Substance | αvβ3 integrin targeting (in words) [1] | αvβ5 integrin targeting (in words) [2] | effect of ITGB6 transfection on sensitivity [3] |
| --- | --- | --- | --- |
| c(RGDfK) | target αvβ3 and αvβ5 integrins | target αvβ3 and αvβ5 integrins |  |
| cilengitide (RGDFV; chains of the INN, looked up) |  |  | ITGB6 transfection did not impact on the sensitivity |
